# Reference: US20250144131A1, “POLYSACCHARIDE COMPOUND WITH A DEFINED MOLECULAR STRUCTURE FOR THE TREATMENT OF PULMONARY FIBROSIS” (SHENZHEN YANDAI INVESTMENT CO., LTD, priority 2023, published 2025)
# How the values were obtained:
# LLC tumors = experiment: Antitumor effect in LLC-bearing mice (tumor volume, relative tumor volume, T/C, tumor coefficient, tumor growth inhibition rate); type: in vivo, C57 mice
# Text: Tumor volume measurement: […] Relative tumor volume (RTV)=TVt/TV0, where TV0 is the tumor volume at the time of administration, and TVt is the tumor volume at each measurement. Relative tumor growth rate T/C (%)=TRTV/CRTV×100%, where TRTV is the RTV for the treatment group and CRTV is the RTV for the control group. Tumor growth inhibition rate (%)=(model control group tumor weight−treatment group tumor weight)/model control group tumor weight×100%.
# [1] = Mortality and body weight of LLC-bearing mice
# Method: LLC cells in logarithmic growth phase at 1×10^7/mL were inoculated at 0.2 mL into the right axilla of 10 purchased normal male C57 mice. Tumor growth was monitored, and tumor-bearing mice were prepared. Once the tumor volume in tumor-bearing mice exceeded 200 mm^3, the tumor tissue was aseptically harvested to prepare a tissue cell suspension. This was mixed at a 1:1 (V:V) ratio with culture medium to create a tumor tissue homogenate. This homogenate was injected into the right axilla of 60 male C57 mice at 0.2 mL per mouse. When the tumor volume in these tumor-bearing mice exceeded 100 mm^3, mice with well-grown tumors without ulceration were selected and randomized into groups based on tumor volume as follows: model control group, cisplatin group (4 mg/kg), Kanglaite soft capsule group (1,404 mg/kg), cisplatin+Kanglaite soft capsule group (4+1,404 mg/kg), cisplatin+GLP-4 low-dose group (4+130 mg/kg), and cisplatin+GLP-4 high-dose group (4+1,170 mg/kg), with 8 mice per group. Additionally, 8 mice were selected as a normal control group. The cisplatin group received intraperitoneal injections of cisplatin, and the other groups were administered their respective drug solutions by gavage (20 mL/kg) or intraperitoneal injection (10 mL/kg), once daily for 27 consecutive days. After the last dose, blood was collected from the orbital plexus to test blood WBC, RBC, liver and kidney function indicators (ALT, AST, BUN, CRE), and CD3^+, CD4^+, and CD8^+ levels. Bone marrow smears were examined, and spleens, thymuses, and tumors were weighed. Histopathological examinations were conducted on the tumor, spleen, stomach, and kidneys.
# Evaluation of quality of life and survival time in animals: Throughout the experimental process, detailed records were kept for each group of animals regarding weight, mortality, mental state, fur color, smoothness of fur, and fecal form, including incidences of diarrhea (if any).
# H22 cells = experiment: Necrosis and apoptosis of H22 cells (GLP-4 combined with cisplatin); type: cell-based; parameters: unit not given here; conditions: 48 h, GLP-4 2 mg/mL, cisplatin 5 μg/mL
# Method: The culture medium was discarded, cells were washed with PBS and digested with 0.125% trypsin. After digestion, the reaction was stopped with medium, and cells were transferred to EP tubes for counting using a cell counter. […] 24 h later, once cells adhered, drugs were added. 48 h after drug administration, cells were digested with trypsin, washed with PBS, and recounted. The corresponding volume of staining solution was added based on cell count, then incubated for 30 min in an incubator. After incubation, cells were chilled to stop staining and maintain viability, followed by imaging using a confocal microscope.
# Based on preliminary study results, the dosing concentration for Ganoderma lucidum polysaccharide GLP-4 was set at 2 mg/mL, and for cisplatin (DDP) at 5 μg/mL.
# [2] = D1, cisplatin 4, Kanglaite 1404, GLP-4 low-dose 130 mg/kg
# [3] = D4, cisplatin 4, Kanglaite 1404, GLP-4 low-dose 130 mg/kg
# [4] = D7, cisplatin 4, Kanglaite 1404, GLP-4 low-dose 130 mg/kg
# [5] = D10, cisplatin 4, Kanglaite 1404, GLP-4 low-dose 130 mg/kg
# [6] = D13, cisplatin 4, Kanglaite 1404, GLP-4 low-dose 130 mg/kg
# [7] = D16, cisplatin 4, Kanglaite 1404, GLP-4 low-dose 130 mg/kg
# [8] = D19, cisplatin 4, Kanglaite 1404, GLP-4 low-dose 130 mg/kg
# [9] = D22, cisplatin 4, Kanglaite 1404, GLP-4 low-dose 130 mg/kg
# [10] = D25, cisplatin 4, Kanglaite 1404, GLP-4 low-dose 130 mg/kg
# [11] = 8 per group, cisplatin 4, Kanglaite 1404, GLP-4 low-dose 130 mg/kg
structure (smiles),measurement,setting,value
"N.N.[Cl][Pt][Cl] [Cisplatin, cisplatin]",Tumor volume,LLC tumors; [2],94.99 ± 11.16
same,Relative tumor growth rate (T/C),LLC tumors; [3],81.4%
same,Relative tumor volume,LLC tumors; [3],1.84
same,Tumor volume,LLC tumors; [3],150.58 ± 34.35
same,Relative tumor growth rate (T/C),LLC tumors; [4],45.5%
same,Relative tumor volume,LLC tumors; [4],0.10
same,Relative tumor growth rate (T/C),LLC tumors; [5],27.3%
same,Relative tumor volume,LLC tumors; [5],0.09
same,Relative tumor growth rate (T/C),LLC tumors; [6],70.2%
same,Relative tumor volume,LLC tumors; [6],0.40
same,Tumor volume,LLC tumors; [6],27.36 ± 24.4
same,Relative tumor growth rate (T/C),LLC tumors; [7],28.2%
same,Relative tumor volume,LLC tumors; [7],0.51
same,Relative tumor growth rate (T/C),LLC tumors; [8],36.9%
same,Relative tumor volume,LLC tumors; [8],0.97
same,Relative tumor growth rate (T/C),LLC tumors; [9],30.9%
same,Relative tumor volume,LLC tumors; [9],10.62
same,Relative tumor growth rate (T/C),LLC tumors; [10],23.6%
same,Relative tumor volume,LLC tumors; [10],12.10
same,Tumor coefficient,"LLC tumors; after last dose, cisplatin 4, Kanglaite 1404, GLP-4 low-dose 130 mg/kg",7.528 ± 2.567 ^ %
same,Tumor growth inhibition rate,"LLC tumors; tumor weight vs model control, cisplatin 4, Kanglaite 1404, GLP-4 low-dose 130 mg/kg",61.6%
same,Number of deaths,[1]; [11],0
same,Number of surviving animals,[1]; [11],8
same,Weight,[1]; [2],14.1 ± 0.7 g
same,Weight,[1]; [3],14.5 ± 1.1 g
same,Mortality rate,"[1]; cisplatin 4, Kanglaite 1404, GLP-4 low-dose 130 mg/kg",0%
same,"Apoptosis rate, Mean ± SD",H22 cells,10.9 ± 1.6
same,"Necrosis rate, Mean ± SD",H22 cells,33.7 ± 8.2
same,"Total mortality rate, Mean ± SD",H22 cells,44.7 ± 9.5
same,Apoptosis rate,H22 cells; single value 1,11.3
same,Necrosis rate,H22 cells; single value 1,27.3
same,Total mortality rate,H22 cells; single value 1,38.7
same,Apoptosis rate,H22 cells; single value 2,8.8
same,Necrosis rate,H22 cells; single value 2,28.6
same,Total mortality rate,H22 cells; single value 2,37.3
same,Apoptosis rate,H22 cells; single value 3,12.9
same,Necrosis rate,H22 cells; single value 3,45.4
same,Total mortality rate,H22 cells; single value 3,58.2
